The source of these data is patent US9409923B2, “Drug-fluorophore complex for specific detection of tumor cells” (KOREA INSTITUTE OF SCIENCE AND TECHNOLOGY, priority 2013, dated 2016).

Series [1] concerns HCT-116 cells (colorectal cancer cells) including luciferase. Put plainly: Specific in vivo imaging of tumor cells (fluorescence vs luminescence, IVIS) in mouse liver tumors. Details: species or system Mice. As to conditions: 25 μM in PBS (pH 7.4), 50 μl dropped on open abdomen, observed after 3 min; FIGS. 2a-2d. As to the method: (§1) Mice were anesthetized with intraperitoneal injection of ketamine and xylazine, and their abdomens were cut open. HCT-116 cells (colorectal cancer cells) including luciferase were added at a concentration of 1×10^6 cells to 20 μl saline solution and injected into the left lobe of the liver to induce tumors in the mice. Four weeks after cell injection, the tumors were imaged as follows:
(§2) The compounds of Synthesis Examples 1-5 were dissolved in PBS (pH 7.4) to prepare 25 μM solutions. Mice were anesthetized intraperitoneally and their abdomens were open. 50 μl of each of the compounds was dropped using a 100 μl pipette. After 3 min, fluorescence and luminescence were observed using an imaging system (IVIS®).
FIGS. 2a to 2d are images showing fluorescence (2a) and luminescence (2b) from the fluorophore to which toremifene was not bonded, and images showing fluorescence (2c) and luminescence (2d) from the complex of the present invention in which the fluorophore was bonded to toremifene.

Series [2] shares this test system. In words: Ex vivo imaging on liver sections excised from mice. It is filed as in vivo. The conditions noted are these: FIGS. 3a-3d. As to the method:
as §1, §2
Similarly to the procedure described above, ex vivo imaging was performed on liver sections excised from mice. The results are shown in FIGS. 3a to 3d (3a and 3b: fluorescence and luminescence images of the fluorophore, respectively; 3c and 3d: fluorescence and luminescence images of the drug-fluorophore complex, respectively).

The conditions of series [3]: in vivo; cited from earlier work.

With `CC[N+]1=C(/C=C/C=C/C=C2/N(CCCCCC(=O)N(C)CCOc3ccc(/C(=C(/CCCl)c4ccccc4)c4ccccc4)cc3)c3ccc4c(S(=O)(=O)O)cc(S(=O)(=O)O)cc4c3C2(C)C)C(C)(C)c2c1ccc1c(S(=O)(=O)O)cc(S(=O)(=O)[O-])cc21` [Synthesis Example 3, N-desmethyl toremifene-FCR675 Carboxylic Acid Complex], in series [1], the “fluorescence in tumor-bearing liver compared with luminescence position” value was “fluorescence was observed in the section of the liver, which was the same as the position confirmed by luminescence”. Moreover, the “fluorescence and luminescence in excised liver sections (ex vivo imaging)” value in series [2] is on record as “the same results of the in vivo imaging were observed in the ex vivo imaging”.

Take `CC1(C)S[C@@H]2[C@H](NC(=O)[C@H](N)c3ccccc3)C(=O)N2[C@H]1C(=O)O` [Ampicillin]: the Volume of distribution in series [3] is given as 0.38 L/kg.

With `CNCCOc1ccc(/C(=C(/CCCl)c2ccccc2)c2ccccc2)cc1` [N-desmethyltoremifene], the Volume of distribution in series [3] is on record as 8.3 L/kg.
